Measurements taken from patent publication US7553969B1, “Substituted phenethylamine derivatives” (Chugai Seiyaku Kabushiki Kaisha, priority 1999, dated 2009).
pIC50: −log10 of the molar value. Where a SMILES comes first, the peptide text is derived from it. [ ]: non-standard residue; d: D form. NMeTyr(3-tBu) = CN[C@@H](Cc1ccc(O)c(C(C)(C)C)c1)C(=O)O; Phe(4-F) = N[C@@H](Cc1ccc(F)cc1)C(=O)O; NMe2Thi = CN[C@@H](Cc1cccs1)C(=O)O

What was measured:
motilin receptor = molecular target: T1, motilin receptor (Oryctolagus cuniculus, UniProt G1T803); test: Motilin receptor binding test (125I motilin, rabbit duodenum protein sample); conditions: 125I motilin 25 pM, concentration reducing specific binding by 50%
T1 construct: homogenized in 50 mM Tris buffer to prepare a protein sample; from tissue; host or cells: rabbit duodenum homogenate (mucous membrane separated)
T1 sequence (G1T803 1-400): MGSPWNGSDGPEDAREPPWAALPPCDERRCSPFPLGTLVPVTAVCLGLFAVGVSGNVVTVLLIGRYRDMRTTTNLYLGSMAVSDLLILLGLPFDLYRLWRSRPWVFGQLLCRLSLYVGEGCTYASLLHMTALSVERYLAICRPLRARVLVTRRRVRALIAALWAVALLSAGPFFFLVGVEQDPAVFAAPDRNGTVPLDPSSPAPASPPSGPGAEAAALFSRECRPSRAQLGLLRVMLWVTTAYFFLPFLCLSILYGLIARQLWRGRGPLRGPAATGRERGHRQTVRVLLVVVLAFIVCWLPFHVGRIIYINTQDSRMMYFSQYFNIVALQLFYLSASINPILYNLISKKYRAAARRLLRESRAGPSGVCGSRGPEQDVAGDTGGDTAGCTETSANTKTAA
How it was run: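 Radioligand binding of 25 pM 125I-motilin to rabbit duodenal mucosa homogenate in 50 mM Tris. Specific binding was defined by excess unlabelled motilin (10^−7 M). IC50 (nM) is the concentration cutting specific binding by 50%.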

[1] = system: specimen of longitudinal muscle in the duodenum extracted from a rabbit (motilin-induced contraction); test: Action on the motilin-induced contraction of a specimen of longitudinal muscle in the duodenum extracted from a rabbit; conditions: Oryctolagus cuniculus, organ bath, Krebs solution 28° C., read-out: Contraction suppressing test, pA2 (converted)
How it was run: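 Rabbit duodenal longitudinal strip in Krebs solution at 28° C, gassed 95% O2/5% CO2, contraction recorded isotonically under 1-g load. Contraction expressed relative to 10^−4 M acetylcholine as 100%. Activity given as pA2 against dose-dependent motilin-induced contraction.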

| pIC50 (motilin receptor) | Compound | Kb [1] |
| --- | --- | --- |
| 8.77 | CCN[C@@H](Cc1ccc(F)cc1)C(=O)N(C)[C@H](C(=O)N[C@@H](Cc1ccc(O)c(C(C)(C)C)c1)C(=O)NC)C(C)C [Example 33, N-Et-Phe(4-F)-N-Me-Val-Tyr(3-tBu)-NHMe] | 3.98 nM |
| 9.00 | CC(C)[C@@H](C(=O)N[C@H](CNC(N)=O)Cc1ccc(O)c(C(C)(C)C)c1)N(C)C(=O)[C@@H](N)Cc1ccc(F)cc1 [Example 9, N-(2-(2-((2-amino-3-(4-fluorophenyl)propionyl)-N-methylamino)-3-methylbutyrylamino)-3-(3-tBu-4-hydroxyphenyl)propyl)urea] | 1 nM |
| 8.62 | CN(C(=O)[C@@H](N)Cc1ccc(F)cc1)[C@@H](Cc1cccs1)C(=O)N(C)[C@@H](Cc1ccc(O)c(C(C)(C)C)c1)C(N)=O [Example 163, Phe(4-F)-N-Me-Ala(β-2-thienyl)-N-Me-Tyr(3-tBu)-NH2] (H-[Phe(4-F)]-[NMe2Thi]-[NMeTyr(3-tBu)]-NH2) | 15.8 nM |
